The text below walks through data of patent US10231954B2, “Neurodegenerative therapies” (LYTIX BIOPHARMA AS, priority 2014, dated 2019).

What all share (type): biochemical
The target in one test is MAPKAP-K2 (Homo sapiens, UniProt P49137). The experiment in a line: Kinase profiling MAPKAP-K2. The following applies: 100 micromolar inhibitor concentration, 100 is no change; for remaining activity at 100 µM: read-out: residual kinase activity, MAPKAP-K2. The source says:
(§1) Any value less that 25 is considered to be highly significant inhibition.

For a further test, the target named is DAPK1 (Homo sapiens, UniProt P53355). In words: Kinase profiling DAPK1. The following applies: 100 micromolar inhibitor concentration, 100 is no change; for remaining activity at 100 µM: read-out: residual kinase activity, DAPK1.
Excerpt: as §1

For the next test, the target named is MARK1 (Homo sapiens, UniProt Q9P0L2). In words: Kinase profiling MARK1. The following applies: 100 micromolar inhibitor concentration, 100 is no change; for remaining activity at 100 µM: read-out: residual kinase activity, MARK1.
Excerpt: as §1

The next test concerns the target SIK3 (Homo sapiens, UniProt Q9Y2K2). In words: Kinase profiling SIK3. Conditions: 100 micromolar inhibitor concentration, 100 is no change; for remaining activity at 100 µM: read-out: residual kinase activity, SIK3.
Excerpt: as §1

A further test concerns the target T1, ASK1 (Homo sapiens, UniProt Q99683).
T1 sequence (Q99683 1-1374): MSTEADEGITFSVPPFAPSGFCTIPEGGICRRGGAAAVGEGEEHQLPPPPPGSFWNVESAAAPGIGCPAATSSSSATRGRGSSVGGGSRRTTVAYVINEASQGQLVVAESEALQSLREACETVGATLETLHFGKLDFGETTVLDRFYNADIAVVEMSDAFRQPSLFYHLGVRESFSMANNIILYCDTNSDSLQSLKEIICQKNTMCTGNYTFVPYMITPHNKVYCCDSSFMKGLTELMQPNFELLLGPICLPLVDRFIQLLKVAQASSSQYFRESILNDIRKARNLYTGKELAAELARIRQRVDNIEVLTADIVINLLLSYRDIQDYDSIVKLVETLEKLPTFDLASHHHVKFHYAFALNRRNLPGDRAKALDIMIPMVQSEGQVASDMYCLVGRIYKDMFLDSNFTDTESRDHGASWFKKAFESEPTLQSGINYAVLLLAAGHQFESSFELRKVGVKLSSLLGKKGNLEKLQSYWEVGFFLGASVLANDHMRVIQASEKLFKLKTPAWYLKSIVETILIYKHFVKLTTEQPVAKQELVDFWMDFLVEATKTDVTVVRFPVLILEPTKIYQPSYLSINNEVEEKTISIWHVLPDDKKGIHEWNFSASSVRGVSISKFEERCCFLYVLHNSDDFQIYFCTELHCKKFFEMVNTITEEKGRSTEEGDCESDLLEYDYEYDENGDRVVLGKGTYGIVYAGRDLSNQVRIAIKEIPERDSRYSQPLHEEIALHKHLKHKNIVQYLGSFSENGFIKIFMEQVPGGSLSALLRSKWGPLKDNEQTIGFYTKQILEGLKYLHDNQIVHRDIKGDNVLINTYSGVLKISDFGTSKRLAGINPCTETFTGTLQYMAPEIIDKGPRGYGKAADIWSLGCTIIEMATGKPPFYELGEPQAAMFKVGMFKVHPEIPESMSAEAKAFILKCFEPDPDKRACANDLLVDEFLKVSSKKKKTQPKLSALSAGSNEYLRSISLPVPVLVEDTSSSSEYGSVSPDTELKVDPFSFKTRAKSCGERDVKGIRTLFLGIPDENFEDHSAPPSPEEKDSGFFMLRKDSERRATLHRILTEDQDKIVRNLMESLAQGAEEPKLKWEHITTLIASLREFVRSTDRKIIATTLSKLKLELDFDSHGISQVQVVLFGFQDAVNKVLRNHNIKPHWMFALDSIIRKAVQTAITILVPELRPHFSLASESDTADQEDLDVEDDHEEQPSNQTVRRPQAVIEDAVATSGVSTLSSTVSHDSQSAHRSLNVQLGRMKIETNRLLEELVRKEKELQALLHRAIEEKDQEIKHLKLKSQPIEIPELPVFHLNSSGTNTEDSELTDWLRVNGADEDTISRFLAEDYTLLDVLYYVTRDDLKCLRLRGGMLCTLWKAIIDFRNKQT
In words: Kinase profiling ASK1. Conditions: 100 micromolar inhibitor concentration, 100 is no change; for remaining activity at 100 µM: read-out: residual kinase activity, ASK1.
Excerpt: as §1

The target of a further test is CSK (Homo sapiens, UniProt P41240). In words: Kinase profiling CSK. Conditions: 100 micromolar inhibitor concentration, 100 is no change; for remaining activity at 100 µM: read-out: residual kinase activity, CSK.
Excerpt: as §1

The target of the next test is T2, EPH-B1 (Homo sapiens, UniProt P54762).
T2 sequence (P54762 18-984): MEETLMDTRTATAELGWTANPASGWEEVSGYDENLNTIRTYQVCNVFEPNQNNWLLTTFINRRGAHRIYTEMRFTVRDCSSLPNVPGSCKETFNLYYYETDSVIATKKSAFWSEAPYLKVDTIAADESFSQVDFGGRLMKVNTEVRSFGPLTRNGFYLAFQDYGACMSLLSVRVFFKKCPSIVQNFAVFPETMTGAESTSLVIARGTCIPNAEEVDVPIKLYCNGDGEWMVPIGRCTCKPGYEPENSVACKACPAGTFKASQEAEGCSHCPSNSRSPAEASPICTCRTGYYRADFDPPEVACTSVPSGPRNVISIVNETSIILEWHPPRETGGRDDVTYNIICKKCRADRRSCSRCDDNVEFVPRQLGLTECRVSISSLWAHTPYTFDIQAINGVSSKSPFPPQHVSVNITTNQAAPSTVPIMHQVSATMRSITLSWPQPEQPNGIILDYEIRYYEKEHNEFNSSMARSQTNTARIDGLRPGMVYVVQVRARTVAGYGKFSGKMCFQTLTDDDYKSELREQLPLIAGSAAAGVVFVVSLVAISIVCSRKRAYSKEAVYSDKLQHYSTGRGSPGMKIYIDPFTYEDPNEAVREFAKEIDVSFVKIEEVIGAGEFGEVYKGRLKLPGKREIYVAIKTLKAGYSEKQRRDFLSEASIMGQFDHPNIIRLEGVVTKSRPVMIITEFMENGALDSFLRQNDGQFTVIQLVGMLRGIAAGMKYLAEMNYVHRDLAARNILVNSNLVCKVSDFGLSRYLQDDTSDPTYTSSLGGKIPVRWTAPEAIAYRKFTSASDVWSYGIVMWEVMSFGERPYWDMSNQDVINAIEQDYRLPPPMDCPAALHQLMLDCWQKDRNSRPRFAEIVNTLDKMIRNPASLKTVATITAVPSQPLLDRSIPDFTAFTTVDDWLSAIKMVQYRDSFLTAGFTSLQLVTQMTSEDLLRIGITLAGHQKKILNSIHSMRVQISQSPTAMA
In words: Kinase profiling EPH-B1. The following applies: 100 micromolar inhibitor concentration, 100 is no change; for remaining activity at 100 µM: read-out: residual kinase activity, EPH-B1.
Excerpt: as §1

Chain of MARK1 (Q9P0L2 whole entry, species assumed): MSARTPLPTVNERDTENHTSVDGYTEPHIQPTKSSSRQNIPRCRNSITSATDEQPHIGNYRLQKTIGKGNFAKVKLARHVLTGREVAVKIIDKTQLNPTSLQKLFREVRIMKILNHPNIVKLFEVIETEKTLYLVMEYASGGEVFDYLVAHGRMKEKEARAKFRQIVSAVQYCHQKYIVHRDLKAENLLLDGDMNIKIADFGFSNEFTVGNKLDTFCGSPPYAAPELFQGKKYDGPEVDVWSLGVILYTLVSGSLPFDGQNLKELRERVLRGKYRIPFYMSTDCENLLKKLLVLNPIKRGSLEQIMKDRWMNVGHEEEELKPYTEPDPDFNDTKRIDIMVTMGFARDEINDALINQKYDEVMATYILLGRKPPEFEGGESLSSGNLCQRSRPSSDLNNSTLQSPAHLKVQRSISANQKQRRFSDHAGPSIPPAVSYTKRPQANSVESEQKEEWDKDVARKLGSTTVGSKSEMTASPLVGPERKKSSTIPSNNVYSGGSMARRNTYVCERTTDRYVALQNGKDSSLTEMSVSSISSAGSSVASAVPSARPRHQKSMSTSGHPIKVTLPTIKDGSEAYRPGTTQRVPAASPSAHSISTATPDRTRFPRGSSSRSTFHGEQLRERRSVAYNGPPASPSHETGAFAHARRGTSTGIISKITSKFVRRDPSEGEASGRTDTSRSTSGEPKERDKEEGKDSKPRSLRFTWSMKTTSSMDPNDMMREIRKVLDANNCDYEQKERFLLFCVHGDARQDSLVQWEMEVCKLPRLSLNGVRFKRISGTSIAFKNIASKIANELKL
Chain of SIK3 (Q9Y2K2 whole entry, species assumed): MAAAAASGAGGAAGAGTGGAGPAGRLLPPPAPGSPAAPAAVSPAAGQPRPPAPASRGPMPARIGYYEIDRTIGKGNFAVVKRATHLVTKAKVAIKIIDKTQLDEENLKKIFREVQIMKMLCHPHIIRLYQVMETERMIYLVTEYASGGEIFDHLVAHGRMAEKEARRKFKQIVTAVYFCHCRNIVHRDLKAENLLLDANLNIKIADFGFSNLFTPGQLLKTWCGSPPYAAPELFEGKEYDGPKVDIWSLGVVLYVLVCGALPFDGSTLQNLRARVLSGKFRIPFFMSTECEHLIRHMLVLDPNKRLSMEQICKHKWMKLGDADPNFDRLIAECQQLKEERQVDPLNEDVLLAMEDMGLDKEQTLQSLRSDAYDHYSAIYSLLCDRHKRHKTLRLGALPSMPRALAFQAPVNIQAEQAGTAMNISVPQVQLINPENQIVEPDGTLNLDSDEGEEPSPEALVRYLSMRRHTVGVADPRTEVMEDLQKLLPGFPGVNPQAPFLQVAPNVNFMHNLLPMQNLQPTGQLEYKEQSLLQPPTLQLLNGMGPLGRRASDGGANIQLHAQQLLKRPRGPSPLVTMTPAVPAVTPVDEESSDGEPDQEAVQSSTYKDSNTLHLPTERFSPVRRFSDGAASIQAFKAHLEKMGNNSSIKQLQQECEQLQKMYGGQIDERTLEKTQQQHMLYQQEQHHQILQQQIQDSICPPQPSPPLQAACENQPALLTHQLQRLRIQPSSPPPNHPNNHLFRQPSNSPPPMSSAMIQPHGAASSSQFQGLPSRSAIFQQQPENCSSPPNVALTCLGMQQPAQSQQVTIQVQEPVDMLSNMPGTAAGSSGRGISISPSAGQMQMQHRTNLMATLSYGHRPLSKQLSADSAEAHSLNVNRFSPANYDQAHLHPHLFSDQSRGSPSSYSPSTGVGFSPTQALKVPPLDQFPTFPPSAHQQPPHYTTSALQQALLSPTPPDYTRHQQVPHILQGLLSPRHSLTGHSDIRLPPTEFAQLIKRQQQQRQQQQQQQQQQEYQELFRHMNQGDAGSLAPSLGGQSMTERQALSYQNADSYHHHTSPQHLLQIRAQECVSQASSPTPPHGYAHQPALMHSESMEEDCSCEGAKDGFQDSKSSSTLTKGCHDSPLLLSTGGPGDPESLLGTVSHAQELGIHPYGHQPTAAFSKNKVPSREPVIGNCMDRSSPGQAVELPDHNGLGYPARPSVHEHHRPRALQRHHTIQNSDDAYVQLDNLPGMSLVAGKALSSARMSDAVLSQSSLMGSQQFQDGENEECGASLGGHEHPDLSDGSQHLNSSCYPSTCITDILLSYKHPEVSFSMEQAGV
Chain of DAPK1 (P53355 whole entry, species assumed): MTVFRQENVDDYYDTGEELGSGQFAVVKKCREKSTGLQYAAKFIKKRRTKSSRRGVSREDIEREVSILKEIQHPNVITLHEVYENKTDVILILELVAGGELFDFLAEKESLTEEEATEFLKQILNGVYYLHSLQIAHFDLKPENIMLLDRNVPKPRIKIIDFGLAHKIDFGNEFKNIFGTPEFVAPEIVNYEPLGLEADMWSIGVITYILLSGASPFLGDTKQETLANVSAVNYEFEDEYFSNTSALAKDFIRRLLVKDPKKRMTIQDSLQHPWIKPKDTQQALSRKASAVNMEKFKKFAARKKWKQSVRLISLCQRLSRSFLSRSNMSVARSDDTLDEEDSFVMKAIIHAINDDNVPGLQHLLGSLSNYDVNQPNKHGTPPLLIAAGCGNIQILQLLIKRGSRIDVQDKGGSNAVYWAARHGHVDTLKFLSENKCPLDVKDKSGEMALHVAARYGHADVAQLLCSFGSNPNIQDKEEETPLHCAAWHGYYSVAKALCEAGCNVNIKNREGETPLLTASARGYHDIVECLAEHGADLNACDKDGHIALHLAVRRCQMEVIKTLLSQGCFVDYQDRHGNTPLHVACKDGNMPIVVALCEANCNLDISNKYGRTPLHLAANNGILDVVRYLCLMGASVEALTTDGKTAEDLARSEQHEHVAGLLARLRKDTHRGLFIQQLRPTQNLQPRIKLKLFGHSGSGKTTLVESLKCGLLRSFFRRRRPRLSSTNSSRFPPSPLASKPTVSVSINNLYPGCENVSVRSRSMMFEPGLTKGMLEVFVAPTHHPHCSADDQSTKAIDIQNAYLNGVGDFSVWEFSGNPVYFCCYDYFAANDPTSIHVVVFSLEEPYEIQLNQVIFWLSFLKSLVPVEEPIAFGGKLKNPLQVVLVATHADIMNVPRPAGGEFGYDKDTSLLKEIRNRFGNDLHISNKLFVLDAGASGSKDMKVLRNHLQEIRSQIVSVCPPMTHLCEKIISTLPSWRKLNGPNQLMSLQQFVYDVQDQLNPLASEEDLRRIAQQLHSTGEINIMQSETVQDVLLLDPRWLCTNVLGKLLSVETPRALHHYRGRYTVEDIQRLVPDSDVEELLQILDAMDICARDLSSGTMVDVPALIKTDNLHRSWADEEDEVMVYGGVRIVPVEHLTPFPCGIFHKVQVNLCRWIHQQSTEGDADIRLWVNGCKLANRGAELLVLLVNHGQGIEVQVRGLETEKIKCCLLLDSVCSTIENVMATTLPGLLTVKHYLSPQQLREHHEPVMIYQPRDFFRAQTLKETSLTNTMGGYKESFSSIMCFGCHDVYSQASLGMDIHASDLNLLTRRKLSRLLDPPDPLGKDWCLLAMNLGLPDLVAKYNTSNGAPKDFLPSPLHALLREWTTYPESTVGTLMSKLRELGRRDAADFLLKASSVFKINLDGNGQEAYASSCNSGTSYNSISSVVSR
Chain of MAPKAP-K2 (P49137 whole entry, species assumed): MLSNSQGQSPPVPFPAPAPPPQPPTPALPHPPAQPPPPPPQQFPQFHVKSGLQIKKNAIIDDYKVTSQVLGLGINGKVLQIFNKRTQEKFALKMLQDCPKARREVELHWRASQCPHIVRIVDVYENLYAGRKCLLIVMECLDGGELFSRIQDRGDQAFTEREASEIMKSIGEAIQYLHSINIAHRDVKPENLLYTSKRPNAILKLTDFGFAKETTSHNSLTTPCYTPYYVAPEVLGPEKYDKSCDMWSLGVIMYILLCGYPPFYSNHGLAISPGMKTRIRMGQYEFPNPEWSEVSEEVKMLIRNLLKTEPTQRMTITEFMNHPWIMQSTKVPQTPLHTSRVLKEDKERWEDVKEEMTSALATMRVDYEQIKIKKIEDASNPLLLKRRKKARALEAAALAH
Chain of CSK (P41240 whole entry, species assumed): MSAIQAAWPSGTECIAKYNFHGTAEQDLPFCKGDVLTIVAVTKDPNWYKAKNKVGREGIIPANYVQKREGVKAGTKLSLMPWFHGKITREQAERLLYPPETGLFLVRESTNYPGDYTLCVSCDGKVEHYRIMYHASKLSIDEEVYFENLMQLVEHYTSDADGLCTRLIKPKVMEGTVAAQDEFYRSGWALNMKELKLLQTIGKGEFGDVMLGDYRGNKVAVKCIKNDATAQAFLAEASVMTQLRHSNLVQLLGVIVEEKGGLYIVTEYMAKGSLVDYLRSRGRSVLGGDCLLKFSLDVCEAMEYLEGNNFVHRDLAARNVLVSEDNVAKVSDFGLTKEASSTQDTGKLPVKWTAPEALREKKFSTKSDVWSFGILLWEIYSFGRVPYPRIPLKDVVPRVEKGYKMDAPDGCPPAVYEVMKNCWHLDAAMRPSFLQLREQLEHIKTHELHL

As to `O=C(Nc1nc2ccc(O)cc2s1)c1ccccc1` [Compound 03-60], on MAPKAP-K2, the “residual kinase activity, MAPKAP-K2” value is reported as 59. Further, the “residual kinase activity, DAPK1” value on DAPK1 came to 19. The “residual kinase activity, MARK1” value on MARK1 is 96. In addition, the “residual kinase activity, SIK3” value at SIK3 worked out at 42. The “residual kinase activity, ASK1” value at ASK1 is on record as 12. Besides, the “residual kinase activity, CSK” value at CSK was determined as 69. The “residual kinase activity, EPH-B1” value on EPH-B1 came out at 98.
As for `CC(=O)Nc1nc2cc(C(F)(F)F)ccc2s1` [Compound 03-73], the remaining activity at 100 µM on MAPKAP-K2 turned out to be 114%; on DAPK1, 93%; on MARK1 it was 88%; on SIK3, 103%; on ASK1, 83%; at CSK, 91%. The remaining activity at 100 µM on EPH-B1 came to 114%.
In the case of `CC(=O)Nc1nc2cc(C)ccc2s1` [Compound 03-76], at MAPKAP-K2, the “residual kinase activity, MAPKAP-K2” value turned out to be 105. In addition, at DAPK1, the “residual kinase activity, DAPK1” value is 82. Also, the “residual kinase activity, MARK1” value on MARK1 was determined as 94. Also, the “residual kinase activity, SIK3” value at SIK3 worked out at 103. In addition, the “residual kinase activity, ASK1” value on ASK1 came out at 23. Moreover, the “residual kinase activity, CSK” value at CSK was determined as 101. For the same compound, the “residual kinase activity, EPH-B1” value at EPH-B1 came out at 103.
On to `CC(=O)Nc1nc2cc(F)ccc2s1` [Compound 03-77], for which the remaining activity at 100 µM at MAPKAP-K2 stood at 106%; at DAPK1, 82%; at MARK1, 80%; at SIK3, 89%; on ASK1, 54%; on CSK, 98%. Further, at EPH-B1, the remaining activity at 100 µM was found to be 103%.
Regarding `O=C(Nc1nc2ccc(O)cc2s1)c1ccncc1` [Compound 08-42], the “residual kinase activity, MAPKAP-K2” value at MAPKAP-K2 is listed as 72. In addition, the “residual kinase activity, DAPK1” value at DAPK1 is given as 32. Moreover, the “residual kinase activity, MARK1” value at MARK1 is given as 75. Moreover, the “residual kinase activity, SIK3” value on SIK3 was 67. In addition, the “residual kinase activity, ASK1” value at ASK1 is 37. Also, the “residual kinase activity, CSK” value on CSK is recorded as 89. For the same compound, the “residual kinase activity, EPH-B1” value on EPH-B1 is on record as 93.
For the compound `O=C(Nc1nc2ccc(O)cc2s1)c1cccnc1` [Compound 08-44], the “residual kinase activity, MAPKAP-K2” value on MAPKAP-K2 turned out to be 56. Moreover, at DAPK1, the “residual kinase activity, DAPK1” value came out at 26. Also, the “residual kinase activity, MARK1” value at MARK1 was 83. For the same compound, the “residual kinase activity, SIK3” value on SIK3 is 80. For the same compound, at ASK1, the “residual kinase activity, ASK1” value worked out at 18. Also, on CSK, the “residual kinase activity, CSK” value was 83. The “residual kinase activity, EPH-B1” value on EPH-B1 was 93.
